Reference: patent US5698691A, “Condensed cyclic compounds and their use” (Takeda Chemical Industries, Ltd., priority 1993, dated 1997)

Experiments:
[1] = target: T1, squalene synthetase (Homo sapiens, UniProt P37268); experiment: Squalene synthetase inhibitory activity, human-derived enzyme (HepG2 microsome fraction); assay type: biochemical; conditions: 5 uM [1-3H] farnesyl pyrophosphate, 37° C., 45 minutes
T1 construct: endogenous in cells; host or cells: HepG2 (human hepatic carcinoma) cells, microsome fraction
T1 sequence (P37268 1-417): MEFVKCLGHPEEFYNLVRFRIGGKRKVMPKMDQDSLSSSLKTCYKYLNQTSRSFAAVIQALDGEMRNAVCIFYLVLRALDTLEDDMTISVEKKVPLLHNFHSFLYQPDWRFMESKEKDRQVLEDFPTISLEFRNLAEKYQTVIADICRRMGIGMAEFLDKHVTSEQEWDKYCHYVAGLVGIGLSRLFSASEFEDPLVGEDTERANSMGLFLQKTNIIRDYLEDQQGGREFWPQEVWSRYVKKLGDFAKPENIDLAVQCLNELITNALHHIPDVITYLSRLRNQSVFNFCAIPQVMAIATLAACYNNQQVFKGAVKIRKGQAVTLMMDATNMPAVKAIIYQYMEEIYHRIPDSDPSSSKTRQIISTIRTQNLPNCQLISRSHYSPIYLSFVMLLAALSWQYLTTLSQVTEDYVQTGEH
Method: (§1) Assay Method of Squalene Synthetase Inhibitory Activity
(§2) The squalene synthetase inhibitory activity was assayed as follows with the enzyme solutions described in the subsequent Experimental Examples 1 and 2.
(§3) More specifically, an enzyme solution (protein content 0.8 ug) prepared in Experimental Example 1 or 2 was added to a solution (total volume 50 μl)) containing 5 uM [1-^3 H] farnesyl pyrophosphate (specific activity 25 uCi/mole), 1 mM NADPH, 5 mM MgCl2, 6 mM glutathione, a 100 mM buffer solution of potassium phosphate (pH 7.4) and a test drug (used as an aqueous solution or a DMSO solution), then the reaction was allowed to proceed at 37° C. for 45 minutes. To the reaction mixture was added 150 μl of a mixture of chloroform and methanol (1:2) to suspend the reaction, followed by adding 50 μl of chloroform and 50 μl of a 3N aqueous solution of sodium hydroxide. 50 μl of the chloroform layer (lower layer) containing the reaction mixture having squalene as the principal component and 3 ml of toluene-based liquid scintillator were mixed, and its radioactivity was determined by means of a liquid scintillation counter.
(§4) The squalene synthetase inhibitory activity was expressed in terms of the concentration inhibiting by 50% the radioactivity taken into the chloroform layer (IC50, molar concentration (M)).
Human hepatic carcinoma cells HepG2 (about 1×10^9 cells) obtained by incubation in a Dulbecco-modified Eagle's medium (37° C. in the presence of 5% CO2) were suspended in 10 ml of an ice-cooled buffer solution [100 mM potassium phosphate buffer (pH 7.4), 30 mM nicotinamide and 2.5 mM MgCl2 ]. The cells were crashed by means of ultrasonication (for 30 seconds, twice). From the sonicate thus obtained, the microsome fraction was obtained by the same procedure as in Experiment Example 1, which was suspended in an ice-cooled 100 mM potassium phosphate buffer (pH 7.4) (about 4 mg/ml protein concentration). This suspension was used as the enzyme solution. The results are shown in [Table 4].

[2] = target: T2, squalene synthetase (Rattus norvegicus, UniProt Q02769); experiment: Squalene synthetase inhibitory activity, rat-derived enzyme (liver microsome fraction); assay type: biochemical; conditions: SD rat liver microsome fraction; 5 uM [1-3H] farnesyl pyrophosphate, 37° C., 45 minutes
T2 construct: from tissue; host or cells: rat liver microsome fraction (SD male rat, 6 weeks old)
T2 sequence (Q02769 1-416): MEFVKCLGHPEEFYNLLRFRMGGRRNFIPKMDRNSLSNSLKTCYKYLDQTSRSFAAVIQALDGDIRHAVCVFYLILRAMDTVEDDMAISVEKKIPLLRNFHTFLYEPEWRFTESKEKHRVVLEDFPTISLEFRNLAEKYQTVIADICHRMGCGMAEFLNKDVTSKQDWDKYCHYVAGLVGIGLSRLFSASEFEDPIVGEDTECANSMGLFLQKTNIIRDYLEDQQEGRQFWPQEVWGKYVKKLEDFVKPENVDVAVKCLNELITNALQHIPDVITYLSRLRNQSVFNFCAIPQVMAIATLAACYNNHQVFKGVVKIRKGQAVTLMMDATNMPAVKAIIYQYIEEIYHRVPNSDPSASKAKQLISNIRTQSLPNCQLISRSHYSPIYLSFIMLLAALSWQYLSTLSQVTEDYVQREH
Method: as §1, §2, §3, §4
An SD male rat (6 week old) was killed by bleeding, and its liver was excised. About 10 g of the liver was washed with a saline solution cooled with ice, which was then homogenized in 15 ml of an ice-cooled buffer solution [100 mM potassium phosphate (pH 7.4), 15 mM nicotinamide, 2 mM MgCl2 ], followed by centrifugation for 20 minutes (4° C.) with 10000×g. The supernatant layer was separated and subjected to further centrifugation for 90 minutes (4° C.) at 105000×g. The sediment was then suspended in an ice-cooled 100 mM phosphate buffer solution (pH 7.4), which was again subjected to centrifugation for 90 minutes (4° C.) at 105000×g. The sediment thus obtained (microsome fraction) was suspended in an ice-cooled 100 mM potassium phosphate buffer (pH 7.4) (about 40 mg/ml protein concentration, determined with BCA protein assay kit of Pias Co., Ltd.). This suspension was used as the enzyme solution.

Row | Structure (SMILES) | IC50 [1] [nM] | IC50 [2] [nM]
1 | COc1ccccc1[C@H]1S[C@H](CC(=O)O)C(=O)N(CC(C)C)c2ccc(Cl)cc21 (relative stereo) [Example 10-7, 3,5-trans-7-Chloro-5-(2-methoxyphenyl)-1-isobutyl-2-oxo-1,2,3,5-tetrahydro-4,1-benzothiazepine-3-acetic acid] | 13 | 26
2 | COc1ccc([C@H]2S[C@H](CC(=O)O)C(=O)N(CC(C)(C)C)c3ccc(Cl)cc32)c(OC)c1 [Example 51, (3R,5S)-7-Chloro-5-(2,4-dimethoxyphenyl)-1-neopentyl-2-oxo-1,2,3,5-tetrahydro-4,1-benzothiazepine-3-acetic acid] | 18 | 21
3 | COC(=O)C[C@H]1S[C@H](c2ccccc2OC)c2cc(Cl)ccc2N(CC(C)C)C1=O (relative stereo) [Example 8-1, 3,5-trans-7-Chloro-5-(2-methoxyphenyl)-1-isobutyl-2-oxo-1,2,3,5-tetrahydro-4,1-benzothiazepine-3-acetic acid methyl ester] | 2000 | –
4 | CCCN1C(=O)[C@@H](CC(=O)O)S[C@H](c2ccccc2Cl)c2cc(Cl)ccc21 (relative stereo) [Example 10-2] | 42 | 62
5 | COc1cccc([C@H]2S[C@H](CC(=O)O)C(=O)N(CC(C)(C)C)c3ccc(Cl)cc32)c1OC [Example 43, (3R,5S)-7-Chloro-5-(2,3-dimethoxyphenyl)-1-neopentyl-2-oxo-1,2,3,5-tetrahydro-4,1-benzothiazepine-3-acetic acid] | 5.9 | 9.3
6 | COc1cccc([C@H]2S[C@H](Cc3nnn[nH]3)C(=O)N(CC(C)(C)C)c3ccc(Cl)cc32)c1OC [Example 59, (3R,5S)-7-Chloro-5-(2,3-dimethoxyphenyl)-1-neopentyl-3-(tetrazol-5-yl)methyl-1,2,3,5-tetrahydro-4,1-benzothaizepin-2-one] | 10 | 16
7 | CC(C)CN1C(=O)[C@@H](CC(=O)O)N=C(c2ccccc2Cl)c2cc(Cl)ccc21 [Example 13, (3R)-1-Isobutyl-7-chloro-5-(2-chlorophenyl)-2,3-dihydro-2-oxo-1H-1,4-benzodiazepine-3-acetic acid] | – | 3900
8 | CC(C)CN1C(=O)C(CC(=O)O)CC(c2ccccc2Cl)c2cc(Cl)ccc21 (centres unmarked) [Example 26, 7-Chloro-5-(2-chlorophenyl)-1-isobutyl-2-oxo-2,3,4,5-tetrahydro-1H-[1]-benzazepine-3-acetic acid] | 120 | 390
9 | CCN1C(=O)[C@@H](CC(=O)O)S[C@H](c2ccccc2Cl)c2cc(Cl)ccc21 (relative stereo) [Example 10-4] | – | 100
10 | CC(C)(C)CN1C(=O)[C@@H](CC(=O)O)[S+]([O-])[C@H](c2ccccc2Cl)c2cc(Cl)ccc21 (relative stereo) [Example 19, 3,5-trans-7-Chloro-5-(2-chlorophenyl)-1-neopentyl-2-oxo-1,2,3,5-tetrahydro-4,1-benzothiazepine-3-acetic acid S-oxide] | – | 700
11 | CC(C)(C)CN1C(=O)[C@@H](CC(=O)O)O[C@H](c2ccccc2Cl)c2cc(Cl)sc21 (relative stereo) [Example 31, 3,5-trans-7-Chloro-5-(2-chlorophenyl)-1-neopentyl-2-oxo-1,2,3,5-tetrahydro-4,1-thieno[2,3-e]benzoxazepine-3-acetic acid] | – | 170
12 | CC(C)(C)CN1C(=S)[C@@H](CC(=O)O)O[C@H](c2ccccc2Cl)c2cc(Cl)ccc21 (relative stereo) [Example 28, 3,5-trans-7-Chloro-5-(2-chlorophenyl)-1-neopentyl-1,2,3,4-tetrahydro-2-thioxo-4,1-benzoxazepine-3-acetic acid] | – | 460
13 | COc1cccc([C@@H]2S[C@@H](CC(=O)O)C(=O)N(CC(C)(C)C)c3ccc(Cl)cc32)c1OC [Example 44, (3S,5R)-7-Chloro-5-(2,3-dimethoxyphenyl)-1-neopentyl-2-oxo-1,2,3,5-tetrahydro-4,1-benzothiazepine-3-acetic acid] | – | 960
14 | CC(C)(C)CN1C(=O)[C@@H](CC(=O)O)S(=O)(=O)[C@H](c2ccccc2Cl)c2cc(Cl)ccc21 (relative stereo) [Example 21, 3,5-trans-7-Chloro-5-(2-chlorophenyl)-1-neopentyl-2-oxo-1,2,3,5-tetrahydro-4,1-benzothiazepine-3-acetic acid S-dioxide] | – | 3300

Now from value to compound:

Row | IC50 [1] [nM] | IC50 [2] [nM] | Structure (SMILES)
15 | 25 | 51 | CC(C)CN1C(=O)[C@@H](CC(=O)O)S[C@H](c2ccccc2Cl)c2cc(Cl)ccc21 (relative stereo) [Example 10-5, 3,5-trans-7-Chloro-5-(2-chlorophenyl)-1-isobutyl-2-oxo-1,2,3,5-tetrahydro-4,1-benzothiazepine-3-acetic acid]
16 | 39 | 180 | CC(C)(C)CN1C(=O)[C@@H](CC(=O)O)S[C@H](c2ccccc2Cl)c2cc(Cl)ccc21 (relative stereo) [Example 9, 3,5-trans-7-Chloro-5-(2-chlorophenyl)-1-neopentyl-2-oxo-1,2,3,5-tetrahydro-4,1-benzothiazepine-3-acetic acid]
17 | 73 | 88 | COc1ccccc1[C@H]1O[C@H](CC(=O)O)C(=O)N(CC(C)(C)C)c2sc(Cl)cc21 (relative stereo) [Example 33, 3,5-trans-7-Chloro-5-(2-methoxyphenyl)-1-neopentyl-2-oxo-1,2,3,5-tetrahydro-4,1-thieno[2,3-e]oxazepine-3-acetic acid]
18 | 31 | 39 | CCCN1C(=O)[C@@H](CC(=O)O)S[C@H](c2ccccc2OC)c2cc(Cl)ccc21 (relative stereo) [Example 10-6]
19 | – | > 1000 | COc1ccc([C@@H]2S[C@@H](CC(=O)O)C(=O)N(CC(C)(C)C)c3ccc(Cl)cc32)c(OC)c1 [Example 50, (3S,5R)-7-Chloro-5-(2,4-dimethoxyphenyl)-1-neopentyl-2-oxo-1,2,3,5-tetrahydro-4,1-benzothiazepine-3-acetic acid]
20 | – | 490 | COc1ccccc1[C@H]1O[C@H](CC(=O)O)C(=O)N(CC(C)C)c2sc(Cl)cc21 (relative stereo) [Example 36, 3,5-trans-7-Chloro-1-isobutyl-5-(2-methoxyphenyl)-2-oxo-1,2,3,5-tetrahydro-4,1-thieno[2,3-e]oxazepine-3-acetic acid]
21 | – | 920 | CN1C(=O)[C@@H](CC(=O)O)S[C@H](c2ccccc2Cl)c2cc(Cl)ccc21 (relative stereo) [Example 10-3]
22 | – | > 1000 | COc1ccccc1[C@H]1O[C@@H](CC(=O)O)C(=O)N(CC(C)(C)C)c2sc(Cl)cc21 (relative stereo) [Example 34, 3,5-cis-7-Chloro-5-(2-methoxyphenyl)-1-neopentyl-2-oxo-1,2,3,5-tetrahydro-4,1-thieno[2,3-e]oxazepine-3-acetic acid]
